Assay [1] concerns N87-TM cells (N87-TM-1, N87-TM-2). The assay is described as follows: Cytotoxicity studies (MTS) on T-DM1 resistant N87-TM cells made in vitro. Type of assay: cell-based.
Experimental: N87 cells were passaged into two separate flasks and each flask was treated identically with respect to the resistance-generation protocol to enable biological duplicates. […] The procedure was intended to simulate the chronic, multi-cycle (on/off) dosing at maximally tolerated doses typically used for cytotoxic therapeutics in the clinic, followed by a recovery period. […] Drug selection pressure was removed after ˜3-4 months of cycle treatments when the level of resistance no longer increased after continued drug exposure. […] Data were collected from various thawed cryopreserved populations derived from a single selection, over approximately 1-2 years after model development to ensure consistency in the results.
Cells were seeded in 96-well plates at low density, then treated the following day with ADCs and unconjugated payloads at 3-fold serial dilutions at 10 concentrations in duplicate. Cells were incubated for 4 days in a humidified 37° C./5% CO2 incubator. The plates were harvested by incubating with CellTiter® 96 AQueous One MTS Solution (Promega, Madison, Wis.) for 1.5 hours and absorbance measured on a Victor plate reader (Perkin-Elmer, Waltham, Mass.) at wavelength 490 nm. IC50 values were calculated using a four-parameter logistic model with XLfit (IDBS, Bridgewater, N.J.).
The subject of another assay is N87 gastric xenografts. The assay can be described thus: N87 gastric xenograft model. Type of assay: in vivo, mouse. Particulars: IV Q4d×4.
Assay [2] concerns N87 cell line xenograft tumors. The assay is described as follows: Bystander effect, immunohistocytochemistry (pHH3, human IgG) of N87 xenograft tumors. Type of assay: in vivo, mouse. The settings on record: single dose T-DM1 6 mg/kg or T-vc0101 3 mg/kg, tumors harvested 96 hours later. For orientation: Xenograft models place foreign cells or tissue in a host animal.
From the text: Tumor sections were stained for human IgG to detect ADC bound to tumor cells and phosphhistone H3 (pHH3) to detect mitotic cells as readout of the proposed mechanism of action for the payloads of both ADCs.
Another assay relates to N87 tumors. The assay can be described thus: In vivo efficacy in N87 tumors in NSG mice. Also noted: species or system mouse. The settings on record: N87 model; 6 and 10 mg/kg Q4D×4.
A further assay deals with N87-TM tumors. The assay is described as follows: In vivo efficacy in T-DM1 resistant N87-TM tumors in NSG mice. On the set-up: species or system mouse. The settings on record: N87-TM-2 model; 6 and 10 mg/kg.
In the next assay the test system is N87 xenografts. The assay is described as follows: T-DM1 resistance generated in vivo in N87 xenografts and follow-on treatment. Also noted: species or system mouse. The settings on record: […] weekly.
A further assay deals with JIMT-1 breast xenografts. The settings on record: even at 6 mg/kg, IV Q4d×4.
The test system of assay [3] is 144580 breast patient-derived xenografts. Particulars: all doses tested (1, 5, 3 and 6 mg/kg), Q4d×4.
Experimental: (§4) For each model described below the first dose was given on Day 1. The tumors were measured at least once a week and their volume was calculated with the formula: tumor volume (mm^3)=0.5×(tumor width^2)(tumor length). The mean tumor volumes (±S. E. M.) for each treatment group were calculated having a maximum of 8-10 animals and a minimum of 6-8 animals to be included.
The 144580 breast patient-derived xenografts were subcutaneously passaged in vivo as fragments from animal to animal in nude (Nu/Nu) female mice. When the tumors reached a volume of 150 to 300 mm^3, they were staged to ensure uniformity of the tumor size among various treatment groups.
The subject of assay [4] is 37622 patient-derived xenografts. The settings on record: 10 mg/kg, Q4d×4.
Experimental: as §4
The 37622 patient-derived xenografts were subcutaneously passaged in vivo as fragments from animal to animal in nude (Nu/Nu) female mice. When the tumors reached a volume of 150 to 300 mm^3, they were staged to ensure uniformity of the tumor size among various treatment groups.
For assay [5], the system named is HT29 colon carcinoma cells (EDB+FN negative). The assay can be described thus: In vitro cytotoxicity of anti-EDB ADCs (Cell Titer Glo, 4 days). The settings on record: four days, ng/ml of antibody. Type of assay: cell-based, human. As to the method:
Proliferating WI38-VA13 or HT29 cells were harvested from culture flasks with non-enzymatic cell dissociation buffer and cultured overnight in 96-well plates (Corning) at 1000 cells/well in a humidified chamber (37° C., 5% CO2). […] In some experiments, cells were plated at 1500 cells/well and treated the same day. […] On harvest day, 50 μl of Cell Titer Glo (Promega) was added to the cells and incubated 0.5 hours at room temperature. […] Relative cell viability was determined as a percentage of untreated control wells. IC50 values were calculated using four-parameter logistic model #203 with XLfit v4.2 (IDBS).
Background: ATP-based viability assays read luminescence as a measure of living cells.

A further assay deals with PDX-NSX-11122. The assay can be described thus: PDX-NSX-11122 NSCLC PDX model. Type of assay: in vivo, mouse. The source says:
(§1) To generate PDX models, tumors were collected from donor animals and tumor fragments approximately 3×3 mm were implanted subcutaneously into the flank of female athymic nude mice (for PDX-NSX-11122 model) or NOD SCID mice (for PDX-PAX-13565 and PDX-PAX-12534 models) by using a 10 gage trocar. When average tumor volume reached approximately 160 to 260 mm^3 the mice were randomized into treatment groups, with 7-10 mice in each group. ADCs or vehicle (PBS) dosing regime and administration route as well as tumor measurement procedures are the same as described above for CLX models.

For a further assay, the system named is H-1975. The assay is described as follows: H-1975 NSCLC CLX model. Type of assay: in vivo, mouse. The source says:
(§2) To generate CLX models, 8×10^6 to 10×10^6 cells of H-1975, HT29, or Ramos tumor lines were implanted into female athymic nude mice subcutaneously. Ramos and H-1975 cells for inoculation were suspended in 50% and 100% Matrigel (BD Biosciences), respectively. For the Ramos model, the animals received whole body irradiation (4 Gy) before cell inoculation to facilitate the establishment of tumors. When the average tumor volume reached approximately 160 to 320 mm^3, the animals were randomized into treatment groups, with 8-10 mice in each group. ADCs or vehicle (PBS) were administered intravenously on day 0 and then the animals were dosed once every 4 days for 4 to 8 doses. Tumors were measured once or twice weekly and tumor volume was calculated as volume (mm^3)=(width×width×length)/2.

In the next assay the test system is HT29. The assay is described as follows: HT29 colon CLX model. Type of assay: in vivo, mouse. Particulars: 3 mg/kg.
From the text: as §2

The test system of a further assay is PDX-PAX-13565. The assay can be described thus: PDX-PAX-13565 pancreatic PDX model. Type of assay: in vivo, mouse. The settings on record: 0.3, 1 and 3 mg/kg.
From the text: as §1

A further assay concerns PDX-PAX-12534. The assay is described as follows: PDX-PAX-12534 pancreatic PDX model. Type of assay: in vivo, mouse. Particulars: 0.3, 1 and 3 mg/kg.
From the text: as §1

Another assay concerns Ramos. The assay is described as follows: Ramos lymphoma CLX model. Type of assay: in vivo, mouse. The settings on record: 3 mg/kg.
From the text: as §2

In a further assay the test system is N87 parental cells. The assay is described as follows: Cytotoxicity studies (CellTiter Glo, 96 h) on parental N87 cells (Example 15). The settings on record: read-out: sensitivity to free payload (IC50), N87. Type of assay: cell-based. The method, then: (§3) Cells were incubated for 96 hours in a humidified 37° C./5% CO2 incubator.
Assay [6] concerns N87-T-DM1 cells (Mouse #7, #17, #2). The assay can be described thus: Cytotoxicity studies (CellTiter Glo, 96 h) on cells relapsed from T-DM1 treatment in vivo. Particulars: for IC50: Mus musculus; for sensitivity of T-DM1 resistant cells generated in vivo: N87-T-DM1 cells compared to parental. Type of assay: cell-based. The method, then: as §3
Where [7] appears, read: read-out: sensitivity to free payload (IC50), N87-T-DM1_Ms2.
Where [8] appears, read: read-out: sensitivity to free payload (IC50), N87-T-DM1_Ms7.
The mark [9] stands for this setting: read-out: sensitivity to free payload (IC50), N87-T-DM1_Ms17.

Entries after “also recorded” stand apart in the source; their conditions may differ. Read-outs that look alike come from different tables or passages of the source. Square brackets hold non-standard residues; d marks the D form. Peptide text beside a SMILES is read from it. * marks the point of attachment. Dolaproine = CO[C@@H]([C@@H]1CCCN1)[C@@H](C)C(=O)O; Dil = CC[C@H](C)[C@H](NC)[C@@H](CC(=O)O)OC; Doe = c1ccc(C[C@H](N*)c2nccs2)cc1; Aib = CC(C)(N)C(=O)O

This is an account of results in US20170216452A1, “ANTIBODIES AND ANTIBODY FRAGMENTS FOR SITE-SPECIFIC CONJUGATION” (Pfizer Inc., priority 2015, published 2017).

Experimental for JIMT-1 breast xenografts: as §4
To generate xenografts, nude (Nu/Nu) female mice were implanted subcutaneously with 5×10^6 JIMT-1 cells (DSMZ# ACC-589) in 50% Matrigel (BD Biosciences). When the tumors reached a volume of 200 to 250 mm^3, the tumors were staged to ensure uniformity of the tumor mass among various treatment groups.
Experimental for N87 gastric xenografts: as §4
When the tumors reached a volume of 250 to 450 mm^3, the tumors were staged to ensure uniformity of the tumor mass among various treatment groups.
Experimental for N87 tumors: (§5) In order to determine if the resistance observed in cell culture was recapitulated in vivo, parental N87 cells and N87-TM-2 cells were expanded and injected into the flanks of Female NOD scid gamma (NSG) immunodeficient mice (NOD. Cg-Prkdcscid II2rgtm1Wjl/SzJ) obtained from The Jackson Laboratory (Bar Harbor, Me.). Mice were injected subcutaneously in the right flank with suspensions of either N87 or N87-TM cells (7.5×10^6 cells per injection, with 50% Matrigel). Mice were randomized into study groups when tumors reached ˜0.3 g (˜250 mm^3). […] Tumors were measured weekly and mass calculated as volume=(width×width×length)/2. Time-to-event analysis (tumor doubling) was conducted and significance evaluated by Log-rank (Mantel-Cox) test.
Experimental for N87 xenografts: Tumors were measured twice per week or weekly and mass calculated as volume=(width×width×length)/2.
Experimental for N87-TM tumors: as §5

On to `COc1cc2cc(c1Cl)N(C)C(=O)C[C@H](OC(=O)[C@H](C)N(C)C(=O)CCS)[C@]1(C)O[C@H]1[C@H](C)[C@@H]1C[C@@](O)(NC(=O)O1)[C@H](OC)/C=C/C=C(\C)C2` [DM1], for which the “sensitivity of N87-TM cells” value in assay [1] was “retained sensitivity”.
T-DM1: the tumor response entry with N87 gastric xenografts (10 mg/kg) was “complete regression of tumors”; with N87 gastric xenografts (1 and 3 mg/kg) it was “delayed tumor growth”; in the assay on JIMT-1 breast xenografts, “inactive”; in assay [3] it was “ineffective”; in assay [4] it was “only provided some therapeutic benefit”. The bystander effect entry in assay [2] is “is not”. Besides, the “mice in which tumor doubling was prevented for at least 60 days” value in the assay on N87 tumors is given as above 50%. Also, in the assay on N87-TM tumors, the “prevention of tumor doubling” value is “failed to do so”. For the same compound, the “mice responding to initial T-DM1 treatment” value in the assay on N87 xenografts is 17 out of 20.
Consider “EDB-L19-vc-0101: anti-EDB antibody L19 conventionally conjugated to vc-0101”, for which, in [5], the “Avg IC50” value was 15,346 ng/ml. In addition, the tumor response entry in the assay with PDX-NSX-11122 (1 mg/kg) is given as “delayed tumor growth”; in the assay on PDX-NSX-11122 (3 mg/kg), “complete regressions”; with PDX-NSX-11122 (3 mg/kg and […]), “tumor regression”; in the assay with H-1975 (3 mg/kg) it was “tumor regressions”; in the assay on H-1975 (3 mg/kg, and as low as […]), “tumor regression”; with H-1975 (0.3, 1 and 3 mg/kg) it was “tumor regression in a dose dependent manner”. Also, the tumor response result with H-1975 (highest doses evaluated (3 mg/kg ADC1; 1 mg/kg ADC9)) was “tumor regression”; in the assay on HT29, “tumor regression”; in the assay on PDX-PAX-13565, “tumor regression in a dose dependent manner”; in the assay on PDX-PAX-12534, “tumor regression in a dose dependent manner”; in the assay on Ramos it was “tumor regression”. In addition, the “efficacy compared to isotype negative control ADCs and disulfide linker ADCs” value in the assay on PDX-NSX-11122 (1 and 3 mg/kg vs 10 mg/kg EDB-L19-diS-DM1, 5 mg/kg EDB-L19-diS-C2OCO-1569) is “greater efficacy”.
A word on the IC50: it is the concentration at which inhibition is half-maximal. For `COc1cccc2c1C(=O)c1c(O)c3c(c(O)c1C2=O)C[C@@](O)(C(=O)CO)C[C@@H]3O[C@H]1C[C@H](N)[C@H](O)[C@H](C)O1` [Doxorubicin], the “sensitivity of N87-TM cells” value in assay [1] was “lack of cross-resistance”. The IC50 in the assay with N87 parental cells was found to be 48 nM; in assay [6] (setting [7]) it was 46 nM; in [6] (setting [8]), 79 nM; in assay [6] (setting [9]), 34 nM. The “sensitivity of T-DM1 resistant cells generated in vivo” value in assay [6] is on record as “No resistance”.
For the compound EDB-L19-diS-DM1, the “Avg IC50” value in [5] was 237 ng/mL.
As for `CC(=O)O[C@H]1C(=O)[C@@]2(C)[C@H]([C@H](OC(=O)c3ccccc3)[C@]3(O)C[C@H](OC(=O)[C@H](O)[C@@H](NC(=O)c4ccccc4)c4ccccc4)C(C)=C1C3(C)C)[C@]1(OC(C)=O)CO[C@@H]1C[C@@H]2O` [paclitaxel], in assay [1], the “sensitivity of N87-TM cells” value is listed as “lack of cross-resistance”.
On to `CC[C@H](C)[C@@H]([C@@H](CC(=O)N1CCC[C@H]1[C@H](OC)[C@@H](C)C(=O)N[C@@H](Cc1ccccc1)c1nccs1)OC)N(C)C(=O)[C@@H](NC(=O)C(C)(C)N)C(C)C` [compound 0101, 2-methylalanyl-N-[(3R,4S,5S)-3-methoxy-1-{(2S)-2-[(1R,2R)-1-methoxy-2-methyl-3-oxo-3-{[(1 S)-2-phenyl-1-(1,3-thiazol-2-yl)ethyl]amino}propyl]pyrrolidin-1-yl}-5-methyl-1-oxoheptan-4-yl]-N-methyl-L-valinamide] (H-[Aib]V[Dil][Dolaproine]-Doe), for which the “sensitivity of N87-TM cells” value in assay [1] is “retained sensitivity”. The IC50 with N87 parental cells amounted to 0.5 nM; in assay [6] (setting [7]), 0.4 nM; in assay [6] (setting [8]) it was 0.6 nM; in assay [6] (setting [9]) it was 0.28 nM. The “sensitivity of T-DM1 resistant cells generated in vivo” value in assay [6] is listed as “surprisingly sensitive; also recorded: not resistant”.
